Reference: US20060148030A1, “Nuclear receptor err y 3” (FUJISAWA PHARMACEUTICAL CO., LTD, priority 2002, published 2006)
Like-named read-outs stand apart in the source and are kept apart here.

B1: ERRγ3: novel ERRγ isoform, nuclear receptor protein of 396 amino acids (SEQ ID NO: 2) lacking part of the DNA binding domain (protein, listed as Homo sapiens)
chain: MSNKDRHIDSSCSSFIKTEPSSPASLTDSVNHHSPGGSSDASGSYSSTMNGHQNGLDSPPLYPSAPILGGSGPVRKLYDDCSSTIVEDPQTKCEYMLNSMPKRLCLVCGDIASGYHYGVASCEACKAFFKRTIQGVRLDRVRGGRQKYKRRIDAENSPYLNPQLAQPAKKPYNKIVSHLLVAEPEKIYAMPDPTVPDSDIKALTTLCDLADRELVVIIGWAKHIPGFSTLSLADQMSLLQSAWMEILILGVVYRSLSFEDELVYADDYIMDEDQSKLAGLLDLNNAILQLVKKYKSMKLEKEEFVTLKAIALANSDSMHIEDVEAVQKLQDVLHEALQDYEAGQHMEDPRRAGKMLMTLPLLRQTSTKAVQHFYNIKLEGKVPMHKLFLEMLEAKV

Tests used:
ERRγ1 = molecular target: T1, ERRγ1 (Homo sapiens, UniProt P62508); conditions: stated as known property; cited from earlier work
T1 sequence (P62508 1-435 isoform P62508-2): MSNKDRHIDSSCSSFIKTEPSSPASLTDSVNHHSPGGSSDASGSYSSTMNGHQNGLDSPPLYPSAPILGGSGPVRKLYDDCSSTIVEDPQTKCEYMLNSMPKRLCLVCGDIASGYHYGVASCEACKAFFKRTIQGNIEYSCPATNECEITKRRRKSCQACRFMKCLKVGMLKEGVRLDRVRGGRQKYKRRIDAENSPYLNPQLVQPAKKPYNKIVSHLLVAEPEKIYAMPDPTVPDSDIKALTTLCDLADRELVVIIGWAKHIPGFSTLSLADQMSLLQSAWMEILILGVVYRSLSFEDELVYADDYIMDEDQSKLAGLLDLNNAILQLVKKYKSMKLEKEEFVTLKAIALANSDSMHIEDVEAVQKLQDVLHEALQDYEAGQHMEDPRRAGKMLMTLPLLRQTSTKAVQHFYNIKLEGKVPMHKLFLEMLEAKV

ERRγ2 = conditions: stated as known property, cited from earlier work
[1] = system: ERE (estrogen response element); test: Reporter gene assay of ERRγ3 alone, ERE luciferase reporter in CV-1 cells; format: cell-based, African green monkey; conditions: ERRγ3 expression plasmid alone, FIG. 15
Experimental: In order to construct a reporter gene assay system for evaluation of the transcription-controlling activity of ERRγ3, a reporter plasmid into which ERE (estrogen response element) was inserted was prepared along with expression plasmids for ERRγ3 and ERRγ2, as follows: A reporter gene assay was performed by transfecting the reporter plasmid and expression plasmids into cultured cells by lipofection, followed by incubating the cells for a certain time, treating the cells with cell lysis solution, and measuring reporter activity with a luminometer using a Dual luciferase assay. […]
The transcription-controlling activity of ERRγ3 was evaluated using a reporter gene assay. […]
The reporter gene assay was performed using CV-1 cells (African green monkey kidney-derived cell line) as hosts. […] They were then exposed to 4-hydroxytamoxifen at different concentrations (0, 10^−10 to −10^−5 M) for 24 hours, whereupon luciferase activity within the cells was measured.
Transfection was performed as follows: CV-1 cells were suspended at 2×10^5 cells/2.5 ml in DMEM medium supplemented with 10% fetal bovine serum, 2000 U/l of penicillin G, and 100 mg/l streptomycin. […] 1 μg of each of the transcription factor expression plasmid, the luciferase reporter plasmid, and another luciferase reporter plasmid for normalizing the measured value (pRL-TK), were dissolved in Opti-MEM (Gibco BRL) to total of 150 μl. […]

ERRγ2, sequence (P62508 whole entry): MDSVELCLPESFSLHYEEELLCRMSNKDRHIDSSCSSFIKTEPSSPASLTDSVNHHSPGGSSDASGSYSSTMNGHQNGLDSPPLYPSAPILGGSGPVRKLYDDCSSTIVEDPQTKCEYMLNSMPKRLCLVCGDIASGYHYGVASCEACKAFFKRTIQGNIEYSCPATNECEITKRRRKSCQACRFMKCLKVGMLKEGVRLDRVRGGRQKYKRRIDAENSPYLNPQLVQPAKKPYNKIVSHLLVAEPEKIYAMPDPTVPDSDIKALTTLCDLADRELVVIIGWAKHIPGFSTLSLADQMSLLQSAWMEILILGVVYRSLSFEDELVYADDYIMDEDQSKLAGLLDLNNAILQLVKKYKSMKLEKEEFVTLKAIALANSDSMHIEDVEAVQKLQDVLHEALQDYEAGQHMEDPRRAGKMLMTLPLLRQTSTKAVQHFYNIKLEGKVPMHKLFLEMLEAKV

Row | Molecule | binding to ERRγ1 (ERRγ1) | inhibition of the transcriptional activation function of ERRγ2 (ERRγ2) | inhibition of the transcriptional activation function of ERRγ2 (ERRγ2; listed as 4-OHT) | transcription-controlling activity of ERRγ3 by itself [1]
1 | 4-hydroxytamoxifen [reference compound] | capable of binding | known to inhibit ERRγ2 activity | inhibiting their transcriptional activation function | –
2 | B1 | – | – | – | does not comprise the transcription-controlling activity
